pIC50: −log10 of the molar value.
Columns and labels:
[1] = system: CHO; test: Compound tested for cytotoxic Activity against CHO cell line; Not toxic; assay type: functional, cell-based, Cricetulus griseus
[2] = system: CAPAN-1; test: Compound tested for cytotoxic Activity against Capan-l cell line from pancreatic carcinoma; assay type: functional, cell-based; details: Homo sapiens
[3] = system: HL-60; test: Compound tested for cytotoxic Activity against HL-60 cell line from promyelocytic leukemia; assay type: functional, cell-based; details: Homo sapiens
[4] = system: HT-29; test: Compound tested for cytotoxic Activity against HT-29 cell line from colon carcinoma; assay type: functional, cell-based; details: Homo sapiens
[5] = system: H322; test: Compound tested for cytotoxic Activity against H-322 cell line from lung carcinoma; assay type: functional, cell-based; details: Homo sapiens, NCI-H322
[6] = system: MCF7; test: Compound tested for cytotoxic Activity against MCF-7 cell line from breast carcinoma; assay type: functional, cell-based; details: Homo sapiens
[7] = system: MOLT-4; test: Compound tested for cytotoxic Activity against Molt-4 cell line from T cell leukemia; assay type: functional, cell-based; details: Homo sapiens
[8] = system: NHDF; test: Compound tested for cytotoxic Activity against NHDF cell line; Not toxic; assay type: functional, cell-based, Homo sapiens
[9] = system: OVCAR-3; test: Compound tested for cytotoxic Activity against Ovcar-3 cell line from ovarian carcinoma; assay type: functional, cell-based; details: Homo sapiens
[10] = system: P388; test: Compound tested for cytotoxic Activity against P-388 cell line from mouse leukemia; assay type: functional, cell-based
[11] = system: SK-MEL-28; test: Compound tested for cytotoxic Activity against SK-Mel-28 cell line from melanoma; assay type: functional, cell-based; details: Homo sapiens
[12] = system: UCLA P-3; test: Compound tested for cytotoxic Activity against UCLA-P3 cell line from lung carcinoma; assay type: functional, cell-based; details: Homo sapiens
[13] = system: CHO; test: (§1) Compound tested for cytotoxic Activity against CHO cell line; assay type: functional, cell-based; details: Cricetulus griseus
[14] = system: H322; test: Compound tested for cytotoxic Activity against H-322 cell line from lung carcinoma; Non toxic; assay type: functional, cell-based, Homo sapiens
[15] = system: NHDF; test: (§2) Compound tested for cytotoxic Activity against NHDF cell line; assay type: functional, cell-based; details: Homo sapiens
[16] = system: CHO; test: as §1; assay type: cell-based; details: Cricetulus griseus
[17] = system: NHDF; test: as §2; assay type: cell-based; details: Homo sapiens

Structure (SMILES) | IC50 [1] | pIC50 [2] | pIC50 [3] | pIC50 [4] | pIC50 [5] | pIC50 [6] | pIC50 [7] | IC50 [8] | pIC50 [9] | pIC50 [10] | pIC50 [11] | pIC50 [12] | pIC50 [13] | IC50 [14] | pIC50 [15] | pIC50 [16] | pIC50 [17]
CC(C)(COC(=O)N1c2ccccc2[C@@]23O[C@]24CCC[C@@H]3C#C/C=C\C#C[C@H]14)S(=O)(=O)c1ccccc1 | Non-toxic | 4.30 | 4.60 | 4.60 | 4.30 | 4.60 | 3.00 | Non-toxic | 4.30 | 4.89 | > 3.00 | 4.30 | – | – | – | – | –
C[C@H](COC(=O)N1c2ccccc2[C@@]23O[C@]24CCC[C@@H]3C#C/C=C\C#C[C@H]14)S(=O)(=O)c1ccccc1 | – | 5.20 | 5.80 | 4.89 | – | < 3.00 | 5.00 | – | 4.89 | 5.80 | < 3.00 | 4.89 | < 3.00 | Non-toxic | < 3.00 | – | –
O=C(OCCS(=O)(=O)c1ccccc1)N1c2ccccc2[C@@]23O[C@]24CCC[C@@H]3C#C/C=C\C#C[C@H]14 | – | 7.11 | 7.01 | 6.41 | 5.51 | 5.51 | 11.00 | – | 6.11 | 7.01 | 4.20 | 6.11 | – | – | – | 5.20 | 5.20
C[C@@H](COC(=O)N1c2ccccc2[C@@]23O[C@]24CCC[C@@H]3C#C/C=C\C#C[C@H]14)S(=O)(=O)c1ccccc1 | – | 5.51 | 6.11 | 6.11 | 4.89 | 4.60 | 8.00 | – | 5.51 | 5.80 | 4.30 | 5.51 | 3.00 | – | 3.00 | – | –
